In brackets after ≈: the same amount, converted by molar mass. Activity calls are given as the source filed them. The rule behind the calls is not given here.
Key:
Escherichia coli [1] = assay: Bactericidal activity against Escherichia coli 10675 assessed as inhibition of bacterial growth incubated for 16 to 20 hrs in presence of human serum; assay type: functional; conditions: time 16-20 hrs
Staphylococcus aureus [2] = assay: Antibacterial activity against Staphylococcus aureus 10780 assessed as inhibition of bacterial growth incubated for 16 to 20 hrs in presence of human serum; assay type: functional; conditions: time 16-20 hrs
Klebsiella aerogenes = assay: Bactericidal activity against Enterobacter aerogenes 15630 assessed as inhibition of bacterial growth incubated for 16 to 20 hrs; assay type: functional; conditions: time 16-20 hrs
Enterococcus faecium [3] = assay: Antibacterial activity against Enterococcus faecium 10067 assessed as inhibition of bacterial growth incubated for 16 to 20 hrs; assay type: functional; conditions: time 16-20 hrs
Klebsiella pneumoniae [4] = assay: Antibacterial activity against Klebsiella pneumoniae BAA 2473 assessed as inhibition of bacterial growth in presence of 10 microg/ml of proteinase K (reference value: 1.56 to 3.13 microM); assay type: functional
Escherichia coli [5] = assay: Bactericidal activity against Escherichia coli 10675 assessed as inhibition of bacterial growth incubated for 16 to 20 hrs; assay type: functional; conditions: time 16-20 hrs
Rhizopus arrhizus [6] = assay: Antifungal activity against Rhizopus oryzae 34550 assessed as inhibition of fungal growth incubated for 16 to 20 hrs; assay type: functional; conditions: time 16-20 hrs
Klebsiella pneumoniae [7] = assay: Bactericidal activity against Klebsiella pneumoniae BAA 2473 assessed as inhibition of bacterial growth in presence of 1 microg/ml of trypsin (reference value: 1.56 to 3.13 microM); assay type: functional
Salmonella typhimurium = assay: Bactericidal activity against Salmonella typhimurium DT104 assessed as inhibition of bacterial growth incubated for 16 to 20 hrs; assay type: functional, Salmonella enterica subsp. enterica serovar Typhimurium; conditions: Salmonella enterica, time 16-20 hrs
Vibrio vulnificus = assay: Antibacterial activity against Vibrio vulnificus 204 assessed as inhibition of bacterial growth incubated for 16 to 20 hrs; assay type: functional; conditions: time 16-20 hrs
Klebsiella pneumoniae [8] = assay: Antibacterial activity against Klebsiella pneumoniae BAA 2473 assessed as inhibition of bacterial growth in presence of 0.1 microg/ml of trypsin (reference value: 1.56 to 3.13 microM); assay type: functional
Enterococcus faecium [9] = assay: Bactericidal activity against Enterococcus faecium 10067 assessed as inhibition of bacterial growth incubated for 16 to 20 hrs in presence of human serum; assay type: functional; conditions: time 16-20 hrs
Klebsiella pneumoniae [10] = assay: Bactericidal activity against Klebsiella pneumoniae BAA 2473 assessed as inhibition of bacterial growth in presence of 10 microg/ml of chymotrypsin (reference value: 1.56 to 3.13 microM); assay type: functional
Enterococcus faecium [11] = assay: Antibacterial activity against Enterococcus faecium 10067 assessed as inhibition of bacterial growth incubated for 16 to 20 hrs in presence of human serum; assay type: functional; conditions: time 16-20 hrs
Staphylococcus aureus [12] = assay: Bactericidal activity against Staphylococcus aureus 10780 assessed as inhibition of bacterial growth incubated for 16 to 20 hrs in presence of human serum; assay type: functional; conditions: time 16-20 hrs
Klebsiella pneumoniae [13] = assay: Antibacterial activity against Klebsiella pneumoniae BAA 2473 assessed as inhibition of bacterial growth in presence of 1 microg/ml of pepsin (reference value: 1.56 to 3.13 microM); assay type: functional
Klebsiella pneumoniae [14] = assay: Antibacterial activity against Klebsiella pneumoniae TL 297 assessed as inhibition of bacterial growth incubated for 16 to 20 hrs in presence of human serum; assay type: functional; conditions: time 16-20 hrs
Enterococcus faecalis = assay: Antibacterial activity against Enterococcus faecalis 10066 assessed as inhibition of bacterial growth incubated for 16 to 20 hrs; assay type: functional; conditions: time 16-20 hrs
Staphylococcus aureus [15] = assay: Bactericidal activity against Staphylococcus aureus 10780 assessed as inhibition of bacterial growth incubated for 16 to 20 hrs; assay type: functional; conditions: time 16-20 hrs
Acinetobacter baumannii [16] = assay: Antibacterial activity against Acinetobacter baumannii 10591 assessed as inhibition of bacterial growth incubated for 16 to 20 hrs; assay type: functional; conditions: time 16-20 hrs
Klebsiella pneumoniae [17] = assay: Bactericidal activity against Klebsiella pneumoniae TL 297 assessed as inhibition of bacterial growth incubated for 16 to 20 hrs in presence of human serum; assay type: functional; conditions: time 16-20 hrs
Pseudomonas aeruginosa [18] = assay: Bactericidal activity against Pseudomonas aeruginosa 19660 assessed as inhibition of bacterial growth incubated for 16 to 20 hrs in presence of human serum; assay type: functional; conditions: time 16-20 hrs
Escherichia coli [19] = assay: Antibacterial activity against Escherichia coli 10675 assessed as inhibition of bacterial growth incubated for 16 to 20 hrs; assay type: functional; conditions: time 16-20 hrs
Lipopolysaccharide (LPS) [20] = assay: Displacement of BODIPY-TR-cadaverine from Klebsiella pneumoniae BAA 2473 lipopolysaccharide (LPS) assessed as increase in fluorescence intensity at 3.125 uM by fluorescence spectrophotometric analysis; assay type: subcellular
Klebsiella pneumoniae [21] = assay: Antibacterial activity against Klebsiella pneumoniae BAA 2473 assessed as inhibition of bacterial growth in presence of 10 microg/ml of chymotrypsin (reference value: 1.56 to 3.13 microM); assay type: functional
Klebsiella pneumoniae [22] = assay: Bactericidal activity against Klebsiella pneumoniae BAA 2473 assessed as inhibition of bacterial growth in presence of 0.1 microg/ml of trypsin (reference value: 1.56 to 3.13 microM); assay type: functional
Rhizopus arrhizus [23] = assay: Fungicidal activity against Rhizopus oryzae 34550 assessed as inhibition of fungal growth incubated for 72 hrs; assay type: functional
Escherichia coli [24] = assay: Antibacterial activity against Escherichia coli 10675 assessed as inhibition of bacterial growth incubated for 16 to 20 hrs in presence of human serum; assay type: functional; conditions: time 16-20 hrs
Klebsiella pneumoniae [25] = assay: Antibacterial activity against Klebsiella pneumoniae BAA 2473 assessed as inhibition of bacterial growth in presence of 10 microg/ml of trypsin (reference value: 1.56 to 3.13 microM); assay type: functional
Acinetobacter baumannii [26] = assay: Bactericidal activity against Acinetobacter baumannii 10591 assessed as inhibition of bacterial growth incubated for 16 to 20 hrs in presence of human serum; assay type: functional; conditions: time 16-20 hrs
Acinetobacter baumannii [27] = assay: Bactericidal activity against Acinetobacter baumannii 10591 assessed as inhibition of bacterial growth incubated for 16 to 20 hrs; assay type: functional; conditions: time 16-20 hrs
Klebsiella pneumoniae [28] = assay: Induction of morphological changes in Klebsiella pneumoniae BAA 2473 assessed as membrane deformations with protruding granules at by transmission electron microscopy analysis; assay type: functional, organism-based
[29] = system: Staphylococcus haemolyticus; assay: Antibacterial activity against Staphylococcus haemolyticus 15237 assessed as inhibition of bacterial growth incubated for 16 to 20 hrs; assay type: functional; conditions: time 16-20 hrs
Klebsiella pneumoniae [30] = assay: Bactericidal activity against Klebsiella pneumoniae BAA 2473 assessed as inhibition of bacterial growth incubated for 16 to 20 hrs; assay type: functional; conditions: time 16-20 hrs
Rhizopus arrhizus [31] = assay: Antifungal activity against Rhizopus oryzae 34550 assessed as inhibition of fungal growth incubated for 16 to 20 hrs in presence of human serum; assay type: functional; conditions: time 16-20 hrs
Salmonella enterica = assay: Antibacterial activity against Salmonella enterica 15455 assessed as inhibition of bacterial growth incubated for 16 to 20 hrs in presence of human serum; assay type: functional; conditions: time 16-20 hrs
Pseudomonas aeruginosa [32] = assay: Antibacterial activity against Pseudomonas aeruginosa 19660 assessed as inhibition of bacterial growth incubated for 16 to 20 hrs in presence of human serum; assay type: functional; conditions: time 16-20 hrs
Klebsiella pneumoniae [33] = assay: Bactericidal activity against Klebsiella pneumoniae BAA 2473 assessed as inhibition of bacterial growth in presence of 0.1 microg/ml of chymotrypsin (reference value: 1.56 to 3.13 microM); assay type: functional
Klebsiella pneumoniae [34] = assay: Additive antibacterial activity against Klebsiella pneumoniae BAA 2473 assessed as fractional inhibitory concentration index in presence of meropenem by checkerboard assay; assay type: functional
Klebsiella pneumoniae [35] = assay: Antibacterial activity against Klebsiella pneumoniae BAA 2473 assessed as meropenem MIC; assay type: functional
Lipopolysaccharide (LPS) [36] = assay: Displacement of BODIPY-TR-cadaverine from Klebsiella pneumoniae BAA 2473 lipopolysaccharide (LPS) assessed as increase in fluorescence intensity at 1.56 uM by fluorescence spectrophotometric analysis; assay type: subcellular

Compound | MBC (Escherichia coli [1]) [µM] | MIC (Staphylococcus aureus [2]) [µM] | MBC (Klebsiella aerogenes) [µM] | MIC (Enterococcus faecium [3]) [µM] | MIC (Klebsiella pneumoniae [4]) [µM] | MBC (Escherichia coli [5]) [µM] | MIC (Rhizopus arrhizus [6]) [µM] | MBC (Klebsiella pneumoniae [7]) [µM] | MBC (Salmonella typhimurium) [µM] | MIC (Vibrio vulnificus) [µM] | MIC (Klebsiella pneumoniae [8]) [µM] | MBC (Enterococcus faecium [9]) [µM] | MBC (Klebsiella pneumoniae [10]) [µM] | MIC (Enterococcus faecium [11]) [µM] | MBC (Staphylococcus aureus [12]) [µM] | MIC (Klebsiella pneumoniae [13]) [µM] | MIC (Klebsiella pneumoniae [14]) [µM] | MIC (Enterococcus faecalis) [µM] | MIC (Acinetobacter baumannii [16]) [µM] | MBC (Klebsiella pneumoniae [17]) [µM] | further results
H-FIHHIIGGLFSAGKAIHRLIRRRRR-OH | > 100 | > 100 | 6.25 | 0.39 | > 100 | 6.25 | 1.56 | > 100 | 6.25 | 3.13 | 1.56 | 100 | > 100 | 100 | 50 | > 100 | > 100 | 3.13 | 1.56 | > 100 | MBC (Staphylococcus aureus [15]): 0.78 µM; MBC (Pseudomonas aeruginosa [18]): 100 µM; MIC (Escherichia coli [19]): 6.25 µM; Activity (Lipopolysaccharide (LPS) [20]): 95%; MIC (Klebsiella pneumoniae [21]): > 100 µM; MBC (Klebsiella pneumoniae [22]): 3.13 µM; MFC (Rhizopus arrhizus [23]): 1.56 µM; MIC (Escherichia coli [24]): > 100 µM; MIC (Klebsiella pneumoniae [25]): > 100 µM; MBC (Acinetobacter baumannii [26]): 100 µM; MBC (Acinetobacter baumannii [27]): 1.56 µM; Activity (Klebsiella pneumoniae [28]): Active; MIC [29]: 1.56 µM; MBC (Klebsiella pneumoniae [30]): 3.13 µM; MIC (Rhizopus arrhizus [31]): > 25 µM; MIC (Salmonella enterica): 100 µM; MIC (Pseudomonas aeruginosa [32]): > 100 µM; MBC (Klebsiella pneumoniae [33]): 1.56 µM
CC(C)C[C@H](NC(=O)[C@H](CCCCN)NC(=O)[C@@H](CCCCN)NC(=O)[C@H](CC(C)C)NC(=O)[C@@H](N)Cc1ccccc1)C(=O)N[C@H](CC(C)C)C(=O)N[C@@H](CCCCN)C(=O)N[C@@H](C)C(=O)N[C@H](CC(C)C)C(=O)N[C@@H](Cc1ccccc1)C(=O)N[C@@H](CO)C(=O)N[C@H](C)C(=O)N1CCC[C@H]1C(=O)N[C@@H](CCCCN)C(=O)N[C@H](C)C(=O)N[C@@H](CC(C)C)C(=O)N[C@@H](CCCCN)C(=O)N[C@H](CCCNC(=N)N)C(=O)N[C@@H](CC(C)C)C(=O)N[C@@H](CC(C)C)C(=O)N[C@H](CCCNC(=N)N)C(=O)N[C@@H](CCCNC(=N)N)C(=O)N[C@@H](CCCNC(=N)N)C(=O)N[C@H](CCCNC(=N)N)C(=O)N[C@@H](CCCNC(=N)N)C(=O)O | 0.78 | 6.25 | 6.25 (≈ 19.2 µg/mL) | 3.13 (≈ 9.64 µg/mL) | 0.78 | 3.13 (≈ 9.64 µg/mL) | 0.78 (≈ 2.4 µg/mL) | 1.56 | 6.25 (≈ 19.2 µg/mL) | 12.5 (≈ 38.5 µg/mL) | 0.78 | 100 | 0.78 | 100 | 100 | 0.78 | 1.56 | 25 (≈ 77 µg/mL) | 3.13 (≈ 9.64 µg/mL) | 1.56 | fractional inhibitory concentration index (FICI) (Klebsiella pneumoniae [34]): 1; MIC (Klebsiella pneumoniae [35]): 3.12 µM; MBC (Pseudomonas aeruginosa [18]): 6.25 µM; MIC (Escherichia coli [19]): 1.56 µM (≈ 4.8 µg/mL); Activity (Lipopolysaccharide (LPS) [20]): 100%; MIC (Klebsiella pneumoniae [21]): 0.78 µM; MBC (Klebsiella pneumoniae [22]): 0.78 µM; MFC (Rhizopus arrhizus [23]): 0.78 µM (≈ 2.4 µg/mL); MIC (Escherichia coli [24]): 0.78 µM; MIC (Klebsiella pneumoniae [25]): 1.56 µM; Activity (Lipopolysaccharide (LPS) [36]): Active; MBC (Acinetobacter baumannii [26]): 6.25 µM; MBC (Acinetobacter baumannii [27]): 3.13 µM (≈ 9.64 µg/mL); Activity (Klebsiella pneumoniae [28]): Active; MIC [29]: 1.56 µM (≈ 4.8 µg/mL); MBC (Klebsiella pneumoniae [30]): 25 µM (≈ 77 µg/mL); MIC (Rhizopus arrhizus [31]): 3.13 µM; MIC (Salmonella enterica): 0.78 µM; MIC (Pseudomonas aeruginosa [32]): 3.13 µM; MBC (Klebsiella pneumoniae [33]): 0.78 µM
